This is an account of results in PubChem BioAssay AID224 (DTP/NCI, 2004).

“And” between values parts separate entries of the source, which are not always exact repeats. Equal entries are not always repeated. Inconclusive results and toxic doses are left out.

The test concerns P335 leukemia ip, BDF1 mice, survival T/C %. Put plainly: NCI In Vivo Anticancer Drug Screen. Data for tumor model P335 Leukemia (intraperitoneal) in B6D2F1 (BDF1) mice. The following applies: endpoint: mean survival time, higher = longer survival. The procedure:
The antitumor activity of compounds was measured in mice bearing transplantable tumors. Survival or tumor size were measured and the results are expressed as the measurement made in the treated group (T) divided by the measurement made in the vehicle treated control group (C). The tumor model used in this assay is P335 Leukemia (intraperitoneal) in B6D2F1 (BDF1) mice

[1] abbreviates: dose: 12.5 mg/kg/injection, schedule: Q01DX Z (ip), vehicle: carboxymethylcellulose (CMC).
Where [2] appears, read: dose: 25.0 mg/kg/injection, schedule: Q01DX Z (ip), vehicle: carboxymethylcellulose (CMC).
Where [3] appears, read: dose: 50.0 mg/kg/injection, schedule: Q01DX Z (ip), vehicle: carboxymethylcellulose (CMC).
[4] abbreviates: dose: 4.0 mg/kg/injection, schedule: Q01DX Z (ip), vehicle: carboxymethylcellulose (CMC).
The mark [5] stands for this setting: dose: 8.0 mg/kg/injection, schedule: Q01DX Z (ip), vehicle: carboxymethylcellulose (CMC).
Setting [6] is: dose: 16.0 mg/kg/injection, schedule: Q01DX Z (ip), vehicle: carboxymethylcellulose (CMC).
Setting [7] is: dose: 31.25 mg/kg/injection, schedule: Q01DX Z (ip), vehicle: carboxymethylcellulose (CMC).
The mark [8] stands for this setting: dose: 250.0 mg/kg/injection, schedule: Q01DX Z (ip), vehicle: carboxymethylcellulose (CMC).
[9] abbreviates: dose: 6.25 mg/kg/injection, schedule: Q01DX Z (ip), vehicle: carboxymethylcellulose (CMC).

Take `CC1CCOS(=O)O1` (stereo unspecified): the T/C was 91 % of control (dose: 10.0 mg/kg/injection, schedule: Q01DX Z (ip), vehicle: carboxymethylcellulose (CMC)); 113 % of control (dose: 20.0 mg/kg/injection, schedule: Q01DX Z (ip), vehicle: carboxymethylcellulose (CMC)); 117 % of control (dose: 40.0 mg/kg/injection, schedule: Q01DX Z (ip), vehicle: carboxymethylcellulose (CMC)); 107 % of control (dose: 80.0 mg/kg/injection, schedule: Q01DX Z (ip), vehicle: carboxymethylcellulose (CMC)).

In the case of `CC(=O)N(C)C`, the T/C is 95 % of control (dose: 250.0 mg/kg/injection, schedule: Q01DX Z (ip), vehicle: saline); 110 % of control (dose: 500.0 mg/kg/injection, schedule: Q01DX Z (ip), vehicle: saline); 92 % of control (dose: 1000.0 mg/kg/injection, schedule: Q01DX Z (ip), vehicle: saline); 90 % of control (dose: 2000.0 mg/kg/injection, schedule: Q01DX Z (ip), vehicle: saline).

In the case of `Cn1cnc([N+](=O)[O-])c1Sc1ncnc2nc[nH]c12`, the T/C was 89 % of control under setting [1], 105 % of control under setting [2] and 115 % of control under setting [3].

For `CS(=O)(=O)OCC(O)C(O)COS(C)(=O)=O` (stereo unspecified), the T/C is 96 % of control (dose: 187.5 mg/kg/injection, schedule: Q01DX Z (ip), vehicle: saline); 111 % of control (dose: 375.0 mg/kg/injection, schedule: Q01DX Z (ip), vehicle: saline); 102 % of control (dose: 750.0 mg/kg/injection, schedule: Q01DX Z (ip), vehicle: saline).

`O=NN(CCCl)C(=O)NCCCl`: the T/C (dose: 16.0 mg/kg/injection, schedule: Q01DX Z (ip), vehicle: saline) is 95 % of control.

As to `c1ccc(CNc2ncnc3[nH]ncc23)cc1`, the T/C was 89 % of control under setting [4], 90 % of control under setting [5], 95 % of control under setting [6] and 101 % of control under setting [7].

`C=CC(CN1CC1)OC(C)=O` (stereo unspecified): the T/C (dose: 0.47 mg/kg/injection, schedule: Q01DX Z (ip), vehicle: carboxymethylcellulose (CMC)) was 106 % of control; the T/C (dose: 0.95 mg/kg/injection, schedule: Q01DX Z (ip), vehicle: carboxymethylcellulose (CMC)) is 110 % of control; the T/C (dose: 1.9 mg/kg/injection, schedule: Q01DX Z (ip), vehicle: carboxymethylcellulose (CMC)) was 103 % of control.

Regarding `O=C1C(NC(=O)C2CCCCC2)=C(N2CC2)C(=O)C(NC(=O)C2CCCCC2)=C1N1CC1`, the T/C runs as follows: (dose: 150.0 mg/kg/injection, schedule: Q01DX Z (ip), vehicle: carboxymethylcellulose (CMC)) 103 % of control; (dose: 300.0 mg/kg/injection, schedule: Q01DX Z (ip), vehicle: carboxymethylcellulose (CMC)) 101 % of control; (dose: 600.0 mg/kg/injection, schedule: Q01DX Z (ip), vehicle: carboxymethylcellulose (CMC)) 106 % of control.

For `CCCNc1ncnc2[nH]ncc12`, the T/C is 95 % of control (dose: 0.62 mg/kg/injection, schedule: Q01DX Z (ip), vehicle: water) and 94 % of control (dose: 5.0 mg/kg/injection, schedule: Q01DX Z (ip), vehicle: water).

For `O=C(Nc1ccc(C2=NCCN2)cc1)c1ccc(C(=O)Nc2ccc(C3=NCCN3)cc2)cc1`, the T/C runs as follows: under setting [2], 112 % of control; under setting [3], 93 % of control; (dose: 100.0 mg/kg/injection, schedule: Q01DX Z (ip), vehicle: carboxymethylcellulose (CMC)) 112 % of control; (dose: 200.0 mg/kg/injection, schedule: Q01DX Z (ip), vehicle: carboxymethylcellulose (CMC)) 179 % of control.

Take `O=c1[nH]c(=O)n(C2CC(O)C(CO)O2)cc1I` (stereo unspecified): the T/C (dose: 225.0 mg/kg/injection, schedule: Q01DX Z (ip), vehicle: carboxymethylcellulose (CMC)) was 93 % of control and the T/C (dose: 450.0 mg/kg/injection, schedule: Q01DX Z (ip), vehicle: carboxymethylcellulose (CMC)) is 104 % of control.

On to `O=c1[nH]c(=O)n(C2CC(O)C(CO)O2)cc1Br` (stereo unspecified), for which the T/C is, setting by setting: under setting [8], 112 % of control; (dose: 500.0 mg/kg/injection, schedule: Q01DX Z (ip), vehicle: carboxymethylcellulose (CMC)) 115 % of control; (dose: 1000.0 mg/kg/injection, schedule: Q01DX Z (ip), vehicle: carboxymethylcellulose (CMC)) 94 % of control and 121 % of control.

Regarding `Nc1ncnc2[nH]ncc12`, the T/C under setting [9] is 89 % of control and the T/C under setting [1] is 92 % of control.

Regarding `COS(C)(=O)=O`, the T/C is 87 % of control (dose: 25.0 mg/kg/injection, schedule: Q01DX Z (ip), vehicle: water); 101 % of control (dose: 50.0 mg/kg/injection, schedule: Q01DX Z (ip), vehicle: water); 101 % of control (dose: 100.0 mg/kg/injection, schedule: Q01DX Z (ip), vehicle: water).

Turning to `CSCS(=O)C[C@H](CO)NC(=O)/C=C/c1c(C)[nH]c(=O)[nH]c1=O` (stereo partly specified), the T/C reads like this: (dose: 0.12 mg/kg/injection, schedule: Q01DX Z (ip), vehicle: saline) 100 % of control; (dose: 0.25 mg/kg/injection, schedule: Q01DX Z (ip), vehicle: saline) 107 % of control; (dose: 0.5 mg/kg/injection, schedule: Q01DX Z (ip), vehicle: saline) 105 % of control; (dose: 1.0 mg/kg/injection, schedule: Q01DX Z (ip), vehicle: saline) 110 % of control.

Regarding `CCOC(=O)NP(=O)(N1CC1(C)C)N1CC1(C)C` (stereo unspecified), the T/C under setting [4] is 101 % of control; the T/C under setting [5] was 106 % of control; the T/C under setting [6] is 114 % of control; the T/C under setting [7] was 101 % of control; the T/C (dose: 125.0 mg/kg/injection, schedule: Q01DX Z (ip), vehicle: carboxymethylcellulose (CMC)) was 88 % of control; the T/C under setting [8] was 93 % of control.

Regarding `Cn1cnc([N+](=O)[O-])c1Sc1nc(N)nc2nc[nH]c12`, where the note is “dose: 0.25 mg/kg/injection, schedule: Q01DX Z (ip), vehicle: carboxymethylcellulose (CMC)”, the T/C is 93 % of control.

Consider `O=C(Nc1ccc(C2=NCCCN2)cc1)c1ccc(C(=O)Nc2ccc(C3=NCCCN3)cc2)cc1`, for which the T/C (dose: 0.4 mg/kg/injection, schedule: Q01DX Z (ip), vehicle: water) was 98 % of control; the T/C (dose: 1.6 mg/kg/injection, schedule: Q01DX Z (ip), vehicle: water) was 154 % of control; the T/C (dose: 3.1 mg/kg/injection, schedule: Q01DX Z (ip), vehicle: water) is 207 % of control.

Regarding `CSc1ncnc2c1ncn2C1OC(CO)C(O)C1O` (stereo unspecified), the T/C runs as follows: (dose: 3.1 mg/kg/injection, schedule: Q01DX Z (ip), vehicle: carboxymethylcellulose (CMC)) 93 % of control; under setting [9], 110 % of control; under setting [2], 179 % of control; under setting [3], 104 % of control.

Consider `C[C@]12C=CC(=O)C=C1CC[C@@H]1[C@@H]2C(=O)C[C@@]2(C)[C@H]1CC[C@]2(O)C(=O)CO`, for which the T/C is 101 % of control (dose: 12.5 mg/kg/injection, schedule: Q01DX Z (sc), vehicle: steriod suspending solution); 108 % of control (dose: 25.0 mg/kg/injection, schedule: Q01DX Z (sc), vehicle: steriod suspending solution); 104 % of control (dose: 50.0 mg/kg/injection, schedule: Q01DX Z (sc), vehicle: steriod suspending solution); 108 % of control (dose: 100.0 mg/kg/injection, schedule: Q01DX Z (sc), vehicle: steriod suspending solution).

As to `CC(=O)O[C@]1(C(C)=O)CC[C@H]2[C@@H]3C[C@H](C)C4=CC(=O)C=C[C@]4(C)[C@@]3(F)[C@@H](O)C[C@@]21C`, the T/C was 107 % of control (dose: 0.63 mg/kg/injection, schedule: Q01DX Z (sc), vehicle: steriod suspending solution); 98 % of control (dose: 1.25 mg/kg/injection, schedule: Q01DX Z (sc), vehicle: steriod suspending solution); 103 % of control (dose: 2.5 mg/kg/injection, schedule: Q01DX Z (sc), vehicle: steriod suspending solution); 90 % of control (dose: 5.0 mg/kg/injection, schedule: Q01DX Z (sc), vehicle: steriod suspending solution); 119 % of control (dose: 10.0 mg/kg/injection, schedule: Q01DX Z (sc), vehicle: steriod suspending solution); 87 % of control (dose: 20.0 mg/kg/injection, schedule: Q01DX Z (sc), vehicle: steriod suspending solution).

Regarding `OCC1OC(n2cnc3c(Cl)ncnc32)C(O)C1O` (stereo unspecified), the T/C reads like this: (dose: 7.8 mg/kg/injection, schedule: Q01DX Z (ip), vehicle: carboxymethylcellulose (CMC)) 101 % of control; (dose: 15.6 mg/kg/injection, schedule: Q01DX Z (ip), vehicle: carboxymethylcellulose (CMC)) 105 % of control.
